The structures appear in SMILES notation. pIC50: −log10 of the molar value.

In one test the target is T1, human Nav1.8/β1 (Homo sapiens, UniProt Q9Y5Y9).
T1 construct: host or cells: HEK293
T1 sequence (Q9Y5Y9 whole entry): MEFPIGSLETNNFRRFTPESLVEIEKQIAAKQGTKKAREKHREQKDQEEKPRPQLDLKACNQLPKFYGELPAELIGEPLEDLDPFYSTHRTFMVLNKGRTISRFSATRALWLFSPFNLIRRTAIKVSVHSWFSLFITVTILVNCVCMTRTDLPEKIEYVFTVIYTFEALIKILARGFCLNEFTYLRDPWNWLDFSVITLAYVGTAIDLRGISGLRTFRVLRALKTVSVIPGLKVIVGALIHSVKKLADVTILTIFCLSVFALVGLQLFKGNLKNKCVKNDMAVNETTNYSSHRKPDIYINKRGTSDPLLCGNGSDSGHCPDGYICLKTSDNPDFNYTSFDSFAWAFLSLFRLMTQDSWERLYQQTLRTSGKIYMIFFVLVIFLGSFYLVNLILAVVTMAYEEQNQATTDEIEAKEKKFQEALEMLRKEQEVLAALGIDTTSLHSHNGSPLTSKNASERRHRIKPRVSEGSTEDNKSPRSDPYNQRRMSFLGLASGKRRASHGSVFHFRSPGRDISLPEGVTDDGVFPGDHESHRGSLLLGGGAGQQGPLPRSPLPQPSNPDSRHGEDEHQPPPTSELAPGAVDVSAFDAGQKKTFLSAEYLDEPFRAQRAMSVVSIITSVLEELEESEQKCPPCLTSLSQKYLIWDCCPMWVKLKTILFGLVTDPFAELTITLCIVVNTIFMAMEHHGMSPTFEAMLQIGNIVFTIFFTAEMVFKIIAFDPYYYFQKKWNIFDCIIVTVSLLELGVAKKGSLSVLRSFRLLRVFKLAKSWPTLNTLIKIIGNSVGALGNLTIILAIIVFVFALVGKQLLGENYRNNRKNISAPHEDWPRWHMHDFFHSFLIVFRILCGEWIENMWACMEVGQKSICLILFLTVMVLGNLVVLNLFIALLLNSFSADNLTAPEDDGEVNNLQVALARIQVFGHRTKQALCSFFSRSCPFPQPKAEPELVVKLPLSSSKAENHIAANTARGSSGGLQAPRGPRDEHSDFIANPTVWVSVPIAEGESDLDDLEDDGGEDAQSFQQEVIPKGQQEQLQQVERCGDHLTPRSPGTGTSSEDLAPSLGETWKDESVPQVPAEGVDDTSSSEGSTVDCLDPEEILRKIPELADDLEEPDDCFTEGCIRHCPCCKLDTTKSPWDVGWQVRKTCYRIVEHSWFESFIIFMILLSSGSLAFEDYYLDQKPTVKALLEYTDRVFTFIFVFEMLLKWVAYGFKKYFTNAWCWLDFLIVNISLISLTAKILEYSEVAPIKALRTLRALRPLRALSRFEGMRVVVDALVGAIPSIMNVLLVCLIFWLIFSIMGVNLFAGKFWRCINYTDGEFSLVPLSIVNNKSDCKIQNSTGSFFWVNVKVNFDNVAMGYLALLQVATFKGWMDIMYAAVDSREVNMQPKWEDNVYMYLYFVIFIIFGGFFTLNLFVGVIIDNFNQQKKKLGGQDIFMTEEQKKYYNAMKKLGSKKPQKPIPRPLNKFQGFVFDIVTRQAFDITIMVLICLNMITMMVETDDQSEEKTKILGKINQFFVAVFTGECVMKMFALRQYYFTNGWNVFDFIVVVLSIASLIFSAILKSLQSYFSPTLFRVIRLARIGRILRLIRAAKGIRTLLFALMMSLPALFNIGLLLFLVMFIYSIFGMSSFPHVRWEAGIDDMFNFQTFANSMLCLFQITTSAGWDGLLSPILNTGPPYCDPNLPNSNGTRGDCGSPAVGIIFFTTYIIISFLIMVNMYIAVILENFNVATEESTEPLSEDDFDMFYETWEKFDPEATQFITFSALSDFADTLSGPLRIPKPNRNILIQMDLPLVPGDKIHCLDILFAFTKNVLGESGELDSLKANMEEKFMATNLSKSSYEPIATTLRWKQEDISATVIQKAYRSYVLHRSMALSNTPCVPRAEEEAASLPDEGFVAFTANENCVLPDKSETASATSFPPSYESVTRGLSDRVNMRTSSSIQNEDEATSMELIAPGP
T1 sequence (Q07699 19-218 partner): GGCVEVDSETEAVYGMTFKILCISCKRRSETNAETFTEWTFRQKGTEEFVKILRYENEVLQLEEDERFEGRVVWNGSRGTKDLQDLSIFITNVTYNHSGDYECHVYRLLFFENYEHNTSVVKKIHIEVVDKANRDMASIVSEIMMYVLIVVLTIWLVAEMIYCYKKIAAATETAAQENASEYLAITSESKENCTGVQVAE
Description: Compound Profiling Human NaV1.8/β1 Cell Line—Sophion QPatch II Assay (automated patch clamp, stably transfected HEK293 cells). It counts as cell-based.
Conditions: not given
How it is done:
Compounds were tested on recombinant human Nav1.8/β1 stably transfected HEK293 (Eurofins, CYL3025, St. Charles, MO) cells using the QPatch II system (Sophion Bioscience A/S, Ballerup—Denmark), an automated patch clamp device. Cells were cultured at 37° C./5% CO2 in DMEM/F-12 supplemented with 10% fetal bovine serum, 1× Non-Essential Amino Acids, and selection antibiotics (0.625 μg/mL Puromycin, 400 μg/mL Geneticin, and 100 μg/mL Hygromycin). One or two days prior to recording, cells were moved to a lower temperature 30° C./5% CO2 incubator to increase surface expression of the channels. On the day of the recordings, cells in culture dishes were washed twice with Ca^2+—Mg^2+ free DPBS and treated with Detachin (Genlantis, San Diego) for 3 minutes and then resuspended in Serum Free Medium (EX-CELL® ACF CHO Medium for Cell Culture (Sigma-Aldrich) supplemented with 0.04 mg/mL soybean trypsin Inhibitor and 25 mM HEPES (all components supplied by Sigma-Aldrich, St. Louis, MO) and allowed to recover for a minimum of 20 minutes in the onboard QStirrer. All experiments were performed at ambient temperature. Intracellular solution contained (mM): CsCl, 50; CsF, 90; MgCl2, 2; EGTA, 5; HEPES, 10; pH adjusted to 7.2 with CsOH. Extracellular solution contained (mM): NaCl, 137; KCl, 4; CaCl2), 3.8; MgCl2, 1; HEPES, 10; Glucose, 10; pH adjusted to 7.4 with NaOH. [LEFT OUT].
Compounds were tested in an interleaved manner across two cohorts of wells to develop an aggregate 8-point concentration response curve. Final concentrations include 0.1% DMSO and 0.03% pluronic Acid. In general, the concentration range spans a range from 0.01-300 nM. Compounds were diluted 1:10 with extracellular solution within their respective cohort. DMSO (0.1% by volume) served as a vehicle control to ascertain assay performance.
(§1) Whole cell patch clamp recordings were conducted according to Sophion standard procedure for QPatch II®. Cells were held at a holding potential of −120 mV. A depolarizing step to 10 mV for 30 ms was applied to elicit inward Na^+ currents. Inter-sweep interval was 15 sec. Following establishment of the whole-cell configuration in extracellular solution, cells were washed twice in extracellular solution containing 0.1% DMSO and 0.03% pluronic acid to stabilize the baseline current. Compounds were then applied by the QPatch II system into each well in an ascending manner within cohort and the current was recorded for five minutes for each concentration. Percent of current remaining was determined by taking the average of the last 5 sweeps within each concentration and normalizing to the latest pre-compound saline period. The potency (IC50) values of the compounds were only assessed against resting state block. Wells whose initial sodium current magnitude were below 2 nA or whole cell resistance fell below 100 MΩ were excluded from analysis.
as §1, with “MO” for “MΩ”, “analysis. […]” for “analysis.”
Background: The patch-clamp technique gives a direct electrical read-out from membranes.
The term pIC50 denotes the IC50 on a negative log10 scale, so that one unit is a factor of ten. As to `Cc1nc(F)ccc1Oc1ncc(C(F)(F)F)c(C)c1C(=O)Nc1cccc([S@@](=N)(=O)CCN(C)C)c1` [Example 75C], the pIC50 was 7.30 to 8.30. The same measure, in the same setting: to `Cc1nc(F)ccc1Oc1ncc(C(F)(F)F)c(C)c1C(=O)Nc1cccc([S@](=N)(=O)CCN(C)C)c1` [Example 76C] belongs 7.30 to 8.30. On the same count and under the same terms, to `COc1cc(C#N)ccc1Oc1ncc(C(F)(F)F)c(C)c1C(=O)Nc1cccc([S@@](=N)(=O)CCCO)c1` [Example 58C] belongs 7.30 to 8.30. On the same count and under the same terms, next, `COc1cc(C#N)ccc1Oc1cc(C(F)(F)F)c(Cl)cc1C(=O)Nc1ccc(F)c([S@@](C)(=N)=O)c1` [Example 26A]: less than 6.70. Consider `COc1cc(C#N)ccc1Oc1cc(C(F)(F)F)c(Cl)cc1C(=O)Nc1cccc([S@@](C)(=N)=O)c1` [Example 25A], for which the pIC50 was less than 6.70. On the same count and under the same terms, next, `CNCC[S@](=N)(=O)c1cccc(NC(=O)c2c(Oc3ccc(F)nc3C)ncc(C(F)(F)F)c2C)c1` [Example 65C]: 7.30 to 8.30. Same read-out and setting: next, `Cc1nc(F)ccc1Oc1cc(C(F)(F)F)ccc1C(=O)Nc1ccc(F)c([S@@](C)(=N)=O)c1` [Example 29A]: less than 6.70; `CNCCCS(=O)(=O)c1cccc(NC(=O)c2c(Oc3ccc(F)nc3C)ncc(C(F)(F)F)c2C)c1` [Example 71C]: 7.30 to 8.30; `Cc1nc(F)ccc1Oc1nc(C(F)(F)F)c(Cl)cc1C(=O)Nc1ccnc([S@](C)(=N)=O)c1` [Example 81C]: less than 6.70.

Take `Cc1nc(F)ccc1Oc1ncc(C(F)(F)F)c(C)c1C(=O)Nc1cccc([S@](=N)(=O)CCCO)c1` [Example 69C]: the pIC50 was 6.70 to 7.00. On the same count and under the same terms, next, `Cc1nc(F)ccc1Oc1ncc(C(F)(F)F)c(C)c1C(=O)N(C)c1cccc([S@@](C)(=N)=O)c1` [Example 47C, (S)-2-((6-fluoro-2-methylpyridin-3-yl)oxy)-N,4-dimethyl-N-(3-(S-methylsulfonimidoyl)phenyl)-5-(trifluoromethyl)nicotinamide]: less than 6.70. `Cc1nc(F)ccc1Oc1ncc(C(F)(F)F)c(C)c1C(=O)Nc1cccc([S@@](=N)(=O)CCO)c1` [Example 66C]: the pIC50 was 7.00 to 7.30.

`COc1cc(C#N)ccc1Oc1ncc(C(F)(F)F)c(C)c1C(=O)Nc1cccc(S(=N)(=O)CCCN(C)C)c1` (stereo not shown) [Example 59C] had a pIC50 of 7.30 to 8.30. Still for that read-out and setting: to `Cc1nc(F)ccc1Oc1cc(C(F)(F)F)ccc1C(=O)Nc1ccnc([S@](C)(=N)=O)c1` [Example 28A] belongs less than 6.70; to `Cc1nc(F)ccc1Oc1ncc(C(F)(F)F)c(C)c1C(=O)Nc1cc(S(C)(=N)=O)ccn1` (stereo not shown) [Example 63C], less than 6.70.

The molecule `Cc1nc(F)ccc1Oc1ncc(C(F)(F)F)c(C)c1C(=O)N[C@H]1C[C@@H](C(N)=O)C1` [Example 85C] gave a pIC50 of less than 6.70.

The molecule `Cc1nc(F)ccc1Oc1ncc(C(F)(F)F)c(C)c1C(=O)Nc1cccc([S@](=N)(=O)CCO)c1` [Example 67C] had a pIC50 of 7.30 to 8.30. Still for that read-out and setting: to `COc1cc(C#N)ccc1Oc1cc(C(F)(F)F)c(Cl)cc1C(=O)Nc1cccc([S@](C)(=N)=O)c1` [Example 27A] belongs less than 6.70; to `Cc1nc(F)ccc1Oc1ncc(C(F)(F)F)c(C)c1C(=O)N(C)c1cccc([S@](C)(=N)=O)c1` [Example 46C, (R)-2-((6-fluoro-2-methylpyridin-3-yl)oxy)-N,4-dimethyl-N-(3-(S-methylsulfonimidoyl)phenyl)-5-(trifluoromethyl)nicotinamide], less than 6.70.

The test is the same for the next values; noted with them: P1, resting state block; Nav1.8/β1 HEK293 cells, holding potential −120 mV; first set of compounds; read-out: P1 (IC50, resting state block).
For `Cc1nc(F)ccc1Oc1cc(C(F)(F)F)ccc1C(=O)Nc1ccnc([S@@](C)(=N)=O)c1` [Example 18A], the pIC50 was less than 6.70. Still for that read-out and setting: next, `Cc1cc(F)ncc1Oc1cc(C(F)(F)F)c(Cl)cc1C(=O)Nc1cccc([S@@](C)(=N)=O)c1` [Example 21A]: 6.70 to 7.00.

Staying with this test, now noted: P1, resting state block; Nav1.8/β1 HEK293 cells, holding potential −120 mV; fourth set of compounds; read-out: P1 (IC50, resting state block).
As for `Cc1nc(F)ccc1Oc1ncc(C(F)(F)F)c(C)c1C(=O)Nc1cccc(S2(=O)=NC(=O)CC2)c1` (single isomer, unassigned) [Example 30D, 2-((6-fluoro-2-methylpyridin-3-yl)oxy)-4-methyl-N-(3-(1-oxido-3-oxo-4,5-dihydro-3H-1l6-isothiazol-1-yl)phenyl)-5-(trifluoromethyl)nicotinamide], the pIC50 was less than 6.70.

Values taken from patent publication US20260356804A1, “SODIUM CHANNEL BLOCKING COMPOUNDS, DERIVATIVES THEREOF, AND METHODS OF THEIR USE” (LATIGO BIOTHERAPEUTICS, INC., priority 2022, published 2026).
